System: NCI-H358 human non-small cell lung cancer cell with KRAS G12C mutation
Experiment: Cell Titer-Glo cell viability, NCI-H358 cells (72 h)
Assay type: cell-based
Conditions: class symbols
Source text: Effect Example 1: Pharmacodynamic Assay 1 (Determination of the efficacy of the compounds of the present disclosure on NCI-H358 human non-small cell lung cancer cell with KRAS G12C mutation)
The following method was used to determine the effect of the compounds of the present disclosure on tumor cell proliferation.
For the KRAS G12C subtype, NCI-H358 non-small cell lung cancer cells with KRAS G12C mutation were used to determine the efficacy of the compounds in inhibiting cancer cell viability. NCI-H358 cells were cultured in a DMEM medium containing 10% fetal bovine serum, 100 U penicillin and […] streptomycin. The cells were cultured in an incubator with 5% CO2 at 37° C. Cancer cell viability was evaluated by determining the content of ATP with Cell Titer-Glo® kit (Luminescent Cell Viability Assay kit, please refer to the manufacturer's instructions for use) and evaluating the inhibition of cell growth.
The experimental method was proceeded in accordance with the steps in the instructions for the kit, and was described briefly as follows. The test compounds were first dissolved in DMSO to prepare stock solutions, and then the stock solutions were subjected to gradient dilution with the culture media of the corresponding cells, thereby preparing test samples. The final concentrations of the compounds were in the range of 30 μM to 0.01 nM. Tumor cells in logarithmic growth phase were seeded into a 96-well cell culture plate at an appropriate density. After the cell culture plate was left overnight in an incubator with 5% CO2 at 37° C., the test compound samples were added thereto and then the cells were further cultured for 72 hours. After the incubation was complete, an appropriate volume of Cell Titer-Glo® reagent was added into each well, and the cells were incubated at 37° C. for 1 to 4 hours. Then, the […] was read on a microplate reader.

| IC50 (Homo sapiens, NCI-H358, 72 h) [nM] | IC50 [nM] | Structure (SMILES) |
| --- | --- | --- |
| < 100 | – | C=CC(=O)N1CCN(c2c(C#N)c(=O)n(-c3ccccc3C(C)C)c3cc(-c4cc(C)ccc4O)c(Cl)cc23)[C@@H](C)C1 [Compound I-66] |
| 100 to 1000 | – | C=CC(=O)N1CCN(c2c(C#N)c(=O)n(-c3ccccc3C(C)C)c3cc(-c4cc(Cl)ccc4F)c(Cl)cc23)[C@@H](C)C1 [Compound I-37] |
| 100 to 1000 | – | C=CC(=O)N1CCN(c2c(C#N)c(=O)n(-c3ccccc3C(C)C)c3cc(-c4cc(C#N)ccc4C)c(Cl)cc23)[C@@H](C)C1 [Compound I-49] |
| 100 to 1000 | – | C=CC(=O)N1CCN(c2c(C#N)c(=O)n(-c3ccccc3C(C)C)c3cc(-c4ccc(Cl)cc4F)c(Cl)cc23)[C@@H](C)C1 [Compound I-42] |
| 100 to 1000 | – | C=CC(=O)N1CCN(c2c(C#N)c(=O)n(-c3ccccc3C(C)C)c3cc(-c4ccccc4Cl)c(Cl)cc23)[C@@H](C)C1 [Compound I-18] |
| 100 to 1000 | – | C=CC(=O)N1CCN(c2c(C#N)c(=O)n(-c3ccccc3C(C)C)c3cc(-c4ccc(F)cc4CO)c(Cl)cc23)[C@@H](C)C1 [Compound I-63] |
| < 100 | – | C=CC(=O)N1CCN(c2c(C#N)c(=O)n(-c3ccccc3C(C)C)c3cc(-c4cc(C)cc(Cl)c4N)c(Cl)cc23)[C@@H](C)C1 [Compound I-80] |
| – | < 100 | C=CC(=O)N1CCN(c2c(C#N)c(=O)n(-c3ccccc3C(C)C)c3cc(-c4cc(Cl)ccc4N)c(Cl)cc23)[C@@H](C)C1 [Compound I-82] |
| 100 to 1000 | – | C=CC(=O)N1CCN(c2c(C#N)c(=O)n(-c3ccccc3C(C)C)c3cc(-c4ccccc4CO)c(Cl)cc23)[C@@H](C)C1 [Compound I-65] |
| 100 to 1000 | – | C=CC(=O)N1CCN(c2c(C#N)c(=O)n(-c3ccccc3C(C)C)c3cc(-c4cccc(C(C)=O)c4)c(Cl)cc23)[C@@H](C)C1 [Compound I-44] |
| 100 to 1000 | – | C=CC(=O)N1CCN(c2c(C#N)c(=O)n(-c3ccccc3C(C)C)c3cc(-c4ccc(N)nc4C)c(Cl)cc23)[C@@H](C)C1 [Compound I-56] |
| 100 to 1000 | – | C=CC(=O)N1CCN(c2c(C#N)c(=O)n(-c3ccccc3C(C)C)c3cc(-c4ccnc5[nH]ccc45)c(Cl)cc23)[C@@H](C)C1 [Compound I-52] |
| 100 to 1000 | – | C=CC(=O)N1CCN(c2c(C#N)c(=O)n(-c3ccccc3C(C)C)c3cc(-c4ccc(N)cc4F)c(Cl)cc23)[C@@H](C)C1 [Compound I-45] |
| < 100 | – | C=CC(=O)N1CCN(c2c(C#N)c(=O)n(-c3ccccc3C(C)C)c3cc(-c4cc(F)ccc4N)c(Cl)cc23)[C@@H](C)C1 [Compound I-69] |
| < 100 | – | C=CC(=O)N1CCN(c2c(C#N)c(=O)n(-c3ccccc3C(C)C)c3cc(-c4c(N)ccc(Cl)c4F)c(Cl)cc23)[C@@H](C)C1 [Compound I-35] |
| 100 to 1000 | – | C=CC(=O)N1CCN(c2c(C#N)c(=O)n(-c3ccccc3C(C)C)c3cc(-c4cccc(N)c4F)c(Cl)cc23)[C@@H](C)C1 [Compound I-77] |
| 100 to 1000 | – | C=CC(=O)N1CCN(c2c(C#N)c(=O)n(-c3ccccc3C(C)C)c3cc(-c4ccc(C#N)cc4N)c(Cl)cc23)[C@@H](C)C1 [Compound I-60] |
| 100 to 1000 | – | C=CC(=O)N1CCN(c2c(C#N)c(=O)n(-c3ccccc3C(C)C)c3cc(-c4ccccc4C(N)=O)c(Cl)cc23)[C@@H](C)C1 [Compound I-12] |
| 100 to 1000 | – | C=CC(=O)N1CCN(c2c(C#N)c(=O)n(-c3ccccc3C(C)C)c3cc(-c4cccc(O)c4F)c(Cl)cc23)[C@@H](C)C1 [Compound I-71] |
| 100 to 1000 | – | C=CC(=O)N1CCN(c2c(C#N)c(=O)n(-c3ccccc3C(C)C)c3cc(-c4c(C)cccc4C)c(Cl)cc23)[C@@H](C)C1 [Compound I-48] |
| > 1000 | – | C=CC(=O)N1CCN(c2c(C#N)c(=O)n(-c3ccccc3C(C)C)c3cc(-c4ccccc4F)c(Cl)cc23)[C@@H](C)C1 [Compound I-10] |
| 100 to 1000 | – | C=CC(=O)N1CCN(c2c(C#N)c(=O)n(-c3ccccc3C(C)C)c3cc(-c4cccc5ccncc45)c(Cl)cc23)[C@@H](C)C1 [Compound I-23] |
| 100 to 1000 | – | C=CC(=O)N1CCN(c2c(C#N)c(=O)n(-c3ccccc3C(C)C)c3cc(-c4cc(N)ccc4F)c(Cl)cc23)[C@@H](C)C1 [Compound I-13] |
| < 100 | – | C=CC(=O)N1CCN(c2c(C#N)c(=O)n(-c3ccccc3C(C)C)c3cc(-c4ccc(F)cc4O)c(Cl)cc23)[C@@H](C)C1 [Compound I-61] |
| 100 to 1000 | – | C=CC(=O)N1CCN(c2c(C#N)c(=O)n(-c3ccccc3C(C)C)c3cc(-c4cccc(Cl)c4F)c(Cl)cc23)[C@@H](C)C1 [Compound I-36] |
| > 1000 | – | C=CC(=O)N1CCN(c2c(C#N)c(=O)n(-c3ccccc3C(C)C)c3cc(-c4cccc(Cl)c4)c(Cl)cc23)[C@@H](C)C1 [Compound I-17] |

More lines, now with the values behind:

| Structure (SMILES) | IC50 (Homo sapiens, NCI-H358, 72 h) [nM] | IC50 [nM] |
| --- | --- | --- |
| C=CC(=O)N1CCN(c2c(C#N)c(=O)n(-c3ccccc3C(C)C)c3cc(-c4ccc(C5CC5)cc4)c(Cl)cc23)[C@@H](C)C1 [Compound I-53] | 100 to 1000 | – |
| C=CC(=O)N1CCN(c2c(C#N)c(=O)n(-c3ccccc3Cl)c3cc(-c4c(OC)ccc(Cl)c4F)c(Cl)cc23)[C@@H](C)C1 [Compound I-85-2] | – | 100 to 1000 |
| C=CC(=O)N1CCN(c2c(C#N)c(=O)n(-c3c(C)ccnc3C(C)C)c3cc(-c4c(C)ccc5[nH]ncc45)c(Cl)cc23)[C@@H](C)C1 [Compound I-83-2] | – | 100 to 1000 |
| C=CC(=O)N1CCN(c2c(C#N)c(=O)n(-c3ccccc3C(C)C)c3cc(-c4cc(Cl)cc(Cl)c4)c(Cl)cc23)[C@@H](C)C1 [Compound I-39] | 100 to 1000 | – |
| C=CC(=O)N1C[C@H](C)N(c2c(C#N)c(=O)n(-c3ccccc3C(C)C)c3cc(-c4c(C)ccc5[nH]ncc45)c(Cl)cc23)C[C@H]1C (single isomer, unassigned) [Compound I-4-2] | – | 100 to 1000 |
| C=CC(=O)N1CCN(c2c(C#N)c(=O)n(-c3ccccc3C(C)C)c3cc(-c4cc(C(F)(F)F)cc(Cl)c4N)c(Cl)cc23)[C@@H](C)C1 [Compound I-79] | < 100 | – |
| C=CC(=O)N1CCN(c2c(C#N)c(=O)n(-c3ccccc3C(C)C)c3cc(-c4cc(C)c(C)cc4C)c(Cl)cc23)[C@@H](C)C1 [Compound I-28] | > 1000 | – |
| C=CC(=O)N1CCN(c2c(C#N)c(=O)n(-c3ccccc3C(C)C)c3cc(-c4cncc(N)c4)c(Cl)cc23)[C@@H](C)C1 [Compound I-59] | > 1000 | – |
| C=CC(=O)N1CCN(c2c(C#N)c(=O)n(-c3c(C(C)C)ncnc3C(C)C)c3cc(-c4c(C)ccc5[nH]ncc45)c(Cl)cc23)[C@@H](C)C1 [Compound I-86-1] | < 100 | – |
| C=CC(=O)N1CCN(c2c(C#N)c(=O)n(-c3ccccc3C(C)C)c3cc(-c4c(C)noc4C)c(Cl)cc23)[C@@H](C)C1 [Compound I-34] | > 1000 | – |
| C=CC(=O)N1CCN(c2c(C#N)c(=O)n(-c3ccccc3C(C)C)c3cc(-c4cnc(F)cc4C)c(Cl)cc23)[C@@H](C)C1 [Compound I-32] | 100 to 1000 | – |
| C=CC(=O)N1CC2(CCN(c3c(C#N)c(=O)n(-c4ccccc4C(C)C)c4cc(-c5c(C)ccc6[nH]ncc56)c(Cl)cc34)CC2)C1 (single isomer, unassigned) [Compound I-5-1] | – | > 1000 |
| CCn1nccc1-c1cc2c(cc1Cl)c(N1CCN(C(C)=O)C[C@@H]1C)c(C#N)c(=O)n2-c1ccccc1C(C)C [Compound I-25] | 100 to 1000 | – |
| C=CC(=O)N1CCN(c2c(C#N)c(=O)n(-c3ccccc3C(C)C)c3cc(-c4cnc(N)nc4)c(Cl)cc23)[C@@H](C)C1 [Compound I-62] | 100 to 1000 | – |
| C=CC(=O)N1CCN(c2c(C#N)c(=O)n(-c3ccccc3C(C)C)c3cc(-c4cccc5c4OCCO5)c(Cl)cc23)[C@@H](C)C1 [Compound I-26] | 100 to 1000 | – |
| C=CC(=O)N1CCN(c2c(C#N)c(=O)n(-c3ccccc3C(C)C)c3cc(-c4cc(Cl)cc(F)c4N)c(Cl)cc23)[C@@H](C)C1 (atropisomer, axis not shown) [Compound I-78] | < 100 | – |
| C=CC(=O)N1CCN(c2c(C#N)c(=O)n(-c3ccccc3C(C)C)c3cc(-c4ccc(C)c(O)c4)c(Cl)cc23)[C@@H](C)C1 [Compound I-67] | 100 to 1000 | – |
| C=CC(=O)N1CCN(c2c(C#N)c(=O)n(-c3ccccc3C(C)C)c3cc(-c4cc(C)c(=O)n(C)c4)c(Cl)cc23)[C@@H](C)C1 [Compound I-16] | 100 to 1000 | – |
| C=CC(=O)N1CCN(c2c(C#N)c(=O)n(-c3ccccc3C(C)C)c3cc(-c4cnc(C5CC5)nc4)c(Cl)cc23)[C@@H](C)C1 [Compound I-27] | 100 to 1000 | – |
